In patent US5254557A, “Compound and treatment” (Beecham Group p.l.c., priority 1988, dated 1993):
Each block holds one compound with its values, some of them ahead of it.

What was measured:
[1] = test system: Spontaneously hypertensive rats; assay: Blood Pressure Lowering Activity (systolic blood pressure, tail cuff method); type: in vivo, rat
Description: Blood Pressure Lowering Activity
Systolic blood pressures were recorded by a modification of the tail cuff method described by I. M. Claxton, M. G. Palfreyman, R. H. Poyser, R. L. Whiting, European Journal of Pharmacology, 37, 179 (1976). A W+W BP recorder, model 8005 was used to display pulses. Prior to all measurements rats were placed in a heated environment (33.5°±0.5° C.) before transfer to a restraining cage. Each determination of blood pressure was the mean of at least 6 readings. Spontaneously hypertensive rats (ages 12-18 weeks) with systolic blood pressures>180 mmHg were considered hypertensive.

[2] = test system: guinea pig tracheal spiral preparations; assay: Bronchodilation in vitro; guinea pig tracheal spiral preparations; type: cell-based; details: Cavia porcellus; for Emax: guinea pig tracheal spirals, relaxation relative to 10^-3 M isoprenaline, read-out: Intrinsic Activity; for IC50: relaxation as percentage of total relaxation by 10^-3 M isoprenaline, cumulative dosing 10^-8 - 2×10^-5 M, 37° C
Description: (a) Bronchodilation in vitro; guinea pig tracheal spiral preparations
Male guinea pigs (300-600 g) were stunned by a blow to the head and bled from the carotid artery. The trachea was exposed, dissected free of connective tissue, and transferred to oxygenated krebs solution at 37° C. Next, spirals (2 per trachea) were prepared by cutting the whole trachea spirally along its longitudinal axis and then dividing this spiral lengthwise. Each preparation was mounted, using silk thread, in a 10 ml organ bath filled with krebs solution at 37° C. and bubbled with 5% CO2 with O2. The resting tension of the preparations was set at 2 g and changes in muscle tension were monitored isometrically by means of a UFI (2 oz) force and displacement transducer (Ormed Ltd) connected to a Linseis pen recorder. All preparations were allowed to equilibrate for 60 minutes. During this equilibration period the preparations were washed by upward displacement at 15 minute intervals and, if necessary, the resting tension was readjusted to 2 g using a mechanical micromanipulator system.
Once a steady resting tension had been obtained, the preparations were dosed cumulatively with the test compound (10^-8 -2×10^-5 M), and finally a maximum relaxation achieved by addition of 10^-3 M isoprenaline. The fall in tension evoked by the test compound was expressed as a percentage of the total relaxation evoked in the presence of 10^-3 M isoprenaline. Appropriate concentration-relaxation curves were then constructed and values for potency (IC50) were obtained.
The composition of Krebs solution is: sodium chloride 118.07 mM, sodium hydrogen carbonate 26.19 mM, potassium chloride 4.68 mM, potassium orthophosphate 1.18 mM, magnesium sulphate septahydrate 1.8 mM and calcium chloride 2.52 mM; pH ca. 7.45.

SMILES: CC1(C)C=C(n2ccc(=O)cc2)c2cc(C#N)ccc2O1 [Example 3, 6-Cyano-2,2-dimethyl-4-(4(1H)-pyridon-1-yl)-2H-1-benzopyran]
% Change in Systolic B.P. ([1]; 3 mg/kg p.o., 1 h post dose): -46 ± 7% | % Change in Systolic B.P. ([1]; 3 mg/kg p.o., 2 h post dose): -49 ± 3% | % Change in Systolic B.P. ([1]; 3 mg/kg p.o., 4 h post dose): -63% | % Change in Systolic B.P. ([1]; 3 mg/kg p.o., 6 h post dose): -57 ± 3% | Emax [2]: 75% | IC50 [2]: 11000 nM

SMILES: CC1(C)Oc2ccc(C#N)cc2[C@@H](n2ccccc2=O)[C@@H]1O (relative stereo) [Example 1, Trans-6-Cyano-3,4-dihydro-2,2-dimethyl-4-(2(1H)-pyridon-1-yl)-2H-1-benzopyran-3-ol]
% Change in Systolic B.P. ([1]; 0.1 mg/kg p.o., 1 h post dose): -12 ± 5% | % Change in Systolic B.P. ([1]; 0.1 mg/kg p.o., 2 h post dose): -20 ± 2% | % Change in Systolic B.P. ([1]; 0.1 mg/kg p.o., 4 h post dose): -21 ± 3% | % Change in Systolic B.P. ([1]; 0.1 mg/kg p.o., 6 h post dose): -23 ± 5% | Emax [2]: 96% | IC50 [2]: 790 nM

SMILES: CC1(C)C=C(n2ccccc2=O)c2cc(C#N)ccc2O1 [Example 2, 6-Cyano-2,2-dimethyl-4-(2(1H)-pyridon-1-yl)-2H-1-benzopyran]
% Change in Systolic B.P. ([1]; 0.03 mg/kg p.o., 2 h post dose): -41 ± 3% | % Change in Systolic B.P. ([1]; 0.03 mg/kg p.o., 4 h post dose): -38% | % Change in Systolic B.P. ([1]; 0.03 mg/kg p.o., 6 h post dose): -32 ± 3% | Emax [2]: 92% | IC50 [2]: 100 nM

SMILES: CC1(C)C=C(n2ccccc2=O)c2cc(C(F)(F)F)ccc2O1 [Example 5, 2,2-Dimethyl-6-trifluoromethyl-4-(2(1H)-pyridon-1-yl)-2H-1-benzopyran]
% Change in Systolic B.P. ([1]; 0.03 mg/kg p.o., 1 h post dose): -15 ± 3% | % Change in Systolic B.P. ([1]; 0.03 mg/kg p.o., 2 h post dose): -20 ± 1% | % Change in Systolic B.P. ([1]; 0.03 mg/kg p.o., 4 h post dose): -25 ± 3% | % Change in Systolic B.P. ([1]; 0.03 mg/kg p.o., 6 h post dose): -28 ± 1% | Emax [2]: 99% | IC50 [2]: 52 nM

SMILES: CC1(C)Oc2ccc(C(F)(F)F)cc2[C@@H](n2ccccc2=O)[C@@H]1O (relative stereo) [Example 4, Trans-3,4-Dihydro-2,2-dimethyl-6-trifluoromethyl-4-(2(1H)-pyridon-1-yl)-2H-1-benzopyran-3-ol]
% Change in Systolic B.P. ([1]; 0.3 mg/kg p.o., 2 h post dose): -42 ± 3% | % Change in Systolic B.P. ([1]; 0.3 mg/kg p.o., 4 h post dose): -32 ± 5% | % Change in Systolic B.P. ([1]; 0.3 mg/kg p.o., 6 h post dose): -34% | Emax [2]: 95% | IC50 [2]: 540 nM

Continued, in another order:

IC50 [2]: 5500 nM
SMILES: CC1(C)Oc2ccncc2[C@@H](n2ccccc2=O)[C@@H]1O (relative stereo) [Example 6]
Emax [2]: 81%

IC50 [2]: 2400 nM
SMILES: CC1(C)C=C(n2ccccc2=O)c2cnccc2O1 [Example 7, 2,2-Dimethyl-4-(2(1H)-pyridon-1-yl)-2H-pyrano[3,2-c]pyridine]
Emax [2]: 93%
